*: point of attachment. NHNH2 = NN*
Assays:
Format in all cases: cell-based
[1] = tested on: HepG2 cells; test: RLuc pDNA delivery, robotic library screening, HepG2
Summary of the method: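 After the 4 h exposure the complexes were replaced with fresh DMEM plus 10% FBS. At 72 hours cells were washed with HBSS, kept 30 minutes at 37° C. for basal readings, then given coelenterazine h (5 μM final) for 10 minutes before total luminescence was read. Triplicate means had untransfected background subtracted and were also expressed relative to Lipofectamine® 2000 set at 1.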

[2] = tested on: ARPE19 cells; test: RLuc pDNA delivery, robotic library screening, ARPE19
[3] = tested on: HepG2 cells; test: EGFP mRNA delivery, robotic library screening, HepG2; settings: HepG2 cells
Method: Cells were seeded in a 96 well plate the day before the experiment at a concentration of 50,000 cell/mL (100 μL/w) in DMEM+10% FBS+1% Gln-Abt. For robotic library screening, the delivery of EGFP-mRNA (from TriLink, fully substituted with 5-methoxyuridine, capped and polyadenylated; TriLink, CleanCap® EGFP mRNA (5moU), ref. L-7201) in six different cell lines was performed. Amphiphilic molecule stock solutions were prepared in DMSO as described above and diluted in DMEM to afford a range of concentrations. The solutions of EGFP-mRNA/amphiphilic molecule complexes were freshly prepared prior to the transfection experiments. 35 μL of the corresponding amphiphile were added to 10 μL of a solution of EGFP-mRNA at 10 ng/μL in DMEM. The mixture was shaken for 30 min at room temperature before the addition to the cells. The cell medium was aspirated, and cells were washed with PBS twice. […] After the incubation, the medium was replaced by 100 μL of fresh DMEM supplemented with 10% FBS. The total EGFP fluorescence was quantified after 72 h in a well plate reader. Amphiphile transfection efficiency was compared and normalized to Lipofectamine® MessengerMax efficiency (value of 1 in Tables 1-5 and 7; double underlined numbers). All experiments were done in triplicate.
Tables 1-7: RLuc (pDNA) or EGFP (mRNA) expression levels were normalized to Lipofectamine reagents (value=1) and expressed as fold-times signal increase. In the case of siRNA, the siRNA treated cells fluorescence was compared with siMOCK control fluorescence, while Cas9-RNP mediated knockout was measured against the fluorescence of untreated cells. In both siRNA and Cas9-RNP, values are expressed as % fluorescence reduction. Amphiphile concentration was 5 μM in all cases. All experiments were performed in triplicate.
Tables 14-19 show the mean (triplicates) fluorescence intensity measured after the transfection of EGFP mRNA by different amphiphiles at different concentrations in a variety of cell lines. Background fluorescence values, accounted by untreated control cells, were subtracted for processing.

Substance | mean luminescent intensity (RLuc pDNA) ([1]; Dodecanal, 10 μM) | mean luminescent intensity (RLuc pDNA) ([1]; Dodecanal, 15 μM) | mean luminescent intensity (RLuc pDNA) ([1]; Myristoleyl, 5 μM) | mean luminescent intensity (RLuc pDNA) ([1]; Myristoleyl, 10 μM) | mean luminescent intensity (RLuc pDNA) ([1]; Myristoleyl, 15 μM) | mean luminescent intensity (RLuc pDNA) ([1]; Palmitoleyl, 5 μM) | mean luminescent intensity (RLuc pDNA) ([1]; Petroselinyl, 15 μM) | mean luminescent intensity (RLuc pDNA) ([2]; Dodecanal, 5 μM) | mean luminescent intensity (RLuc pDNA) ([2]; Dodecanal, 10 μM) | mean luminescent intensity (RLuc pDNA) ([2]; Myristoleyl, 5 μM) | mean luminescent intensity (RLuc pDNA) ([2]; Myristoleyl, 10 μM) | mean luminescent intensity (RLuc pDNA) ([2]; Myristoleyl, 15 μM) | mean luminescent intensity (RLuc pDNA) ([2]; Petroselinyl, 5 μM) | mean luminescent intensity (RLuc pDNA) ([2]; Petroselinyl, 10 μM) | mean luminescent intensity (RLuc pDNA) ([2]; Petroselinyl, 15 μM) | mean fluorescence intensity after transfection of EGFP mRNA ([3]; Dodecanal, 10 μM) | mean fluorescence intensity after transfection of EGFP mRNA ([3]; Dodecanal, 15 μM) | mean fluorescence intensity after transfection of EGFP mRNA ([3]; Oleyl, 5 μM) | mean fluorescence intensity after transfection of EGFP mRNA ([3]; Palmitoleyl, 10 μM) | mean fluorescence intensity after transfection of EGFP mRNA ([3]; Palmitoleyl, 15 μM) | further results
Ac-RHLK*RLK*RRLK*RL-NH2 (Ac-RHLKRLKRRLKRL-NH2; not fully specified (residues 4, 7, 11); printed as Ac-RHLK*RLK*RRLK*RL-NH2; also: linker on K* not given here) [13(Arg-His)] | 45978 RLU | 15867 RLU | 270920 RLU | 65274 RLU | 23425 RLU | 211155 RLU | 41128 RLU | 69520 RLU | 2762 RLU | 17 RLU | −31 RLU | −11 RLU | 44329 RLU | 2986 RLU | 1967 RLU | 782 | 868 | 5251 | 2070 | 1943 | mean luminescent intensity (RLuc pDNA) ([1]; Dodecanal, 5 μM): 38257 RLU; mean luminescent intensity (RLuc pDNA) ([1]; Oleyl, 5 μM): 123820 RLU; mean luminescent intensity (RLuc pDNA) ([1]; Oleyl, 15 μM): −1443 RLU; mean luminescent intensity (RLuc pDNA) ([1]; Palmitoleyl, 10 μM): 107841 RLU; mean luminescent intensity (RLuc pDNA) ([1]; Palmitoleyl, 15 μM): 24788 RLU; mean luminescent intensity (RLuc pDNA) ([1]; Petroselinyl, 10 μM): 133806 RLU; mean luminescent intensity (RLuc pDNA) ([2]; Oleyl, 5 μM): 8369 RLU; mean luminescent intensity (RLuc pDNA) ([2]; Oleyl, 10 μM): 2379 RLU; mean luminescent intensity (RLuc pDNA) ([2]; Oleyl, 15 μM): 716 RLU; mean luminescent intensity (RLuc pDNA) ([2]; Palmitoleyl, 5 μM): 67443 RLU; mean luminescent intensity (RLuc pDNA) ([2]; Palmitoleyl, 15 μM): 670 RLU; mean fluorescence intensity after transfection of EGFP mRNA ([3]; Palmitoleyl, 5 μM): 4616; mean fluorescence intensity after transfection of EGFP mRNA ([3]; Petroselinyl, 5 μM): 1986; mean fluorescence intensity after transfection of EGFP mRNA ([3]; Petroselinyl, 10 μM): 508
Ac-RK*LRK*K*L-NH2 (Ac-RK(NHNH2)LRK(NHNH2)K(NHNH2)L-NH2; not fully specified; printed as Ac-RK*LRK*K*L-NH2; also: K*2,K*5,K*6: native or modified lysine (ε-amide to a linker)) [Peptide 7.3] | 4529 RLU | 14804 RLU | 109155 RLU | 294365 RLU | 241385 RLU | 107745 RLU | 51938 RLU | 661 RLU | 458 RLU | −209 RLU | −262 RLU | −315 RLU | 22197 RLU | 31833 RLU | 7692 RLU | 1477 | 952 | 893 | 3553 | 766 | mean luminescent intensity (RLuc pDNA) ([1]; Palmitoleyl, 10 μM): 84207 RLU; mean luminescent intensity (RLuc pDNA) ([1]; Palmitoleyl, 15 μM): 46358 RLU; mean luminescent intensity (RLuc pDNA) ([1]; Petroselinyl, 5 μM): 228306 RLU; mean luminescent intensity (RLuc pDNA) ([1]; Petroselinyl, 10 μM): 150739 RLU; mean luminescent intensity (RLuc pDNA) ([2]; Dodecanal, 15 μM): 558 RLU; mean luminescent intensity (RLuc pDNA) ([2]; Palmitoleyl, 5 μM): 344 RLU; mean fluorescence intensity after transfection of EGFP mRNA ([3]; Dodecanal, 5 μM): 1786; mean fluorescence intensity after transfection of EGFP mRNA ([3]; Myristoleyl, 5 μM): 1046; mean fluorescence intensity after transfection of EGFP mRNA ([3]; Palmitoleyl, 5 μM): 3286; mean fluorescence intensity after transfection of EGFP mRNA ([3]; Petroselinyl, 5 μM): 4095; mean fluorescence intensity after transfection of EGFP mRNA ([3]; Petroselinyl, 10 μM): 188; mean fluorescence intensity after transfection of EGFP mRNA ([3]; Petroselinyl, 15 μM): 821
Ac-RK*LRRK*L-NH2 (Ac-RK(NHNH2)LRRK(NHNH2)L-NH2; not fully specified; printed as Ac-RK*LRRK*L-NH2; also: K*2,K*6: native or modified lysine (ε-amide to a linker)) [Peptide 7.2] | 4114 RLU | 1202 RLU | 11364 RLU | 23772 RLU | 25742 RLU |  |  | 567 RLU | 424 RLU | −485 RLU | −509 RLU | −568 RLU |  |  |  | −468 | 268 |  |  |  | mean luminescent intensity (RLuc pDNA) ([2]; Dodecanal, 15 μM): 462 RLU; mean fluorescence intensity after transfection of EGFP mRNA ([3]; Dodecanal, 5 μM): 75; mean fluorescence intensity after transfection of EGFP mRNA ([3]; Myristoleyl, 5 μM): 678; mean fluorescence intensity after transfection of EGFP mRNA ([3]; Myristoleyl, 10 μM): 752; mean fluorescence intensity after transfection of EGFP mRNA ([3]; Myristoleyl, 15 μM): −60
Ac-RK*LRRK*LRK*-NH2 (Ac-RK(NHNH2)LRRK(NHNH2)LRK(NHNH2)-NH2; not fully specified; printed as Ac-RK*LRRK*LRK*-NH2; also: K*2,K*6,K*9: native or modified lysine (ε-amide to a linker)) [Peptide 9.3] | 25099 RLU | 21420 RLU | 57891 RLU | 244850 RLU | 286208 RLU |  | 50057 RLU |  |  | 1400 RLU | 6498 RLU | 1695 RLU | 1052 RLU | 39447 RLU | 55918 RLU |  |  | 382 | 1226 | 629 | mean luminescent intensity (RLuc pDNA) ([2]; Palmitoleyl, 15 μM): 7259 RLU; mean fluorescence intensity after transfection of EGFP mRNA ([3]; Myristoleyl, 15 μM): 867; mean fluorescence intensity after transfection of EGFP mRNA ([3]; Oleyl, 10 μM): 802; mean fluorescence intensity after transfection of EGFP mRNA ([3]; Oleyl, 15 μM): 231

From patent US20250304623A1, “PEPTIDES FOR INTRACELLULAR DELIVERY” (UNIVERSIDADE DE SANTIAGO DE COMPOSTELA, priority 2022, published 2025)
